Experimental data as given in publication PMC10178769, “A Facile Synthesis and Molecular Characterization of Certain New Anti-Proliferative Indole-Based Chemical Entities” (International Journal of Molecular Sciences, 2023).

How the values were obtained:
[1] = test system: MCF-7 breast cancer cells; assay: MTT assay, antiproliferative activity, MCF-7; type: cell-based; conditions: Homo sapiens, MCF7, 48 h, read-out: Cytotoxicity IC50 MCF7
Description: (§1) The cancer cell growth inhibitory activity of the synthesized compound was tested against three human cancer cell lines, namely, breast cancer (MCF-7), colon cancer (HCT116) and lung cancer (A549), as well as non-tumorigenic human lung cell line (WI38) to estimate the selectivity for tumor cells.
(§2) Anti-proliferative activity in compounds 4a–q were tested in three cancerous cell lines (MCF-7 breast cancer cells, A549 lung carcinoma, HCT human colon cancer cells) and in WI-38 human lung fibroblast cells. Cells were plated at a density of 1.2–1.8 × 10,000 cells/well in a volume of 100 µL complete growth medium and were incubated at 37 °C for 24 h. Cells were then treated with serially diluted tested compound and incubated at 37 °C for 48 h. Twenty microliters of 3-(4,5-dimethylthiazol-2-yl)-2,5-diphenyltetrazolium bromide (MTT) (2.5 mg/mL) dissolved in PBS were added to the cells and cells were further incubated for 4 h at 37 °C. To dissolve formazan crystals, MTT solutions were completely removed and 100 μL DMSO was added. The absorbance was detected at 540 nm using a Spectramax 250 microplate reader (Molecular device, San Jose, CA, USA), and viability (%) was calculated as [optical density (OD) of treated group/OD of control group] × 100.

[2] = test system: HCT116 colon cancer cells; assay: MTT assay, antiproliferative activity, HCT116; type: cell-based; conditions: Homo sapiens, HCT-116, 48 h, read-out: Cytotoxicity IC50 HCT116
Description: as §1, §2

[3] = test system: A549 lung carcinoma cells; assay: MTT assay, antiproliferative activity, A549; type: cell-based; conditions: Homo sapiens, 48 h, read-out: Cytotoxicity IC50 A549
Description: as §1, §2

[4] = MTT assay, toxicity on normal cells WI38; type: cell-based, human; conditions: WI-38 lung fibroblast cells (non-tumorigenic); MTT, 48 h, non-tumorigenic human lung cell line; read-out: Cytotoxicity IC50 WI38
Description: as §1, §2

[5] = test system: WI-38 human lung fibroblast cells; assay: MTT assay, toxicity on normal cells WI38; type: cell-based; conditions: WI38 versus cancer cells
Description: as §1, §2

MCF-7 cells [6] = assay: Annexin V-FITC apoptosis flow cytometry; type: cell-based, human; conditions: 10 μm, 48 h
Description: To detect the apoptotic potential of our compound of choice, 4e, an Annexin V-FITC Apoptosis Detection Kit (BioVision, Mountain View, CA, USA) was used based on the manufacturer’s protocol using a dose of 10 μm for 48 h.

MCF-7 cells [7] = assay: Cell cycle analysis, propidium iodide flow cytometry; type: cell-based, human; conditions: 10 µm, 48 h, control 34.72%
Description: To evaluate if the antiproliferative effect of 4e was due to the disturbance of the cell cycle, cells were treated with 10 µm for 48 h. […] Therefore, it is possible that the antiproliferative effect of 4e is due to S-phase cell cycle arrest.
To detect cell cycle status after treating cells with 4e, 1 × 10^6 cells were cultured in six-well plates for twenty-four hours per cell and were then treated with 10 μm of 4e for 48 h. Cells were then washed with phosphate-buffered saline. Cells were then fixed with 70% of cold ethanol and kept at 4 °C overnight. Cell analysis was then analyzed following the manifacorere protocol, using a Propidium Iodide Flow Cytometry Kit for Cell Cycle Analysis (Abcam, Waltham, MA, USA).

MCF-7, A549, and HCT = assay: MTT assay, cytotoxicity over the three cancer cell lines; type: cell-based; conditions: Homo sapiens, average over MCF-7, HCT116, A549, 48 h
Description: as §1, with “The title compounds 4a–q were subjected to MTT assay to determine their cytotoxicity, and their in vitro antiproliferative activity was examined as well. The” for “The”, “cells. Staurosporine was used as a reference drug.” for “cells.”
as §2, with “To dissolve formazan crystals, MTT solutions were completely removed and 100 μL DMSO was added.” left out

melting point [°C] | SMILES | IC50 [1] [µM] | IC50 [2] [µM] | IC50 [3] [µM] | IC50 at 48 h [4] [µM] | selectivity against non-tumorigenic cell line (WI38) (in words) [5] | Annexin-V and 7-AAD positive cell populations (MCF-7 cells [6]) | cell population in the S phase (MCF-7 cells [7]) [%] | IC50 (MCF-7, A549, and HCT) [µM]
233 | NN(Cc1ccc(Cl)cc1)C(=O)c1cc2ccccc2[nH]1 [4a, N-(4-Chlorobenzyl)-1H-indole-2-carbohydrazide] | 21.7 ± 1.04 | 41.3 ± 1.98 | 5.9 ± 0.32 | 66.2 ± 3.75 |  |  |  | 
225 | COc1ccc2[nH]c(C(=O)N(N)Cc3ccc(Cl)cc3)cc2c1 [4b, N-(4-Chlorobenzyl)-5-methoxy-1H-indole-2-carbohydrazide] | 11.5 ± 0.55 | 190 ± 9.12 | 49.2 ± 2.68 | 163 ± 9.25 |  |  |  | 
237 | NN(Cc1ccccc1)C(=O)c1cc2ccccc2[nH]1 [4c, N-Benzyl-1H-indole-2-carbohydrazide] | 62 ± 2.97 | 32.5 ± 1.56 | 25.3 ± 1.38 | 50.4 ± 2.86 |  |  |  | 
210 | COc1ccc2[nH]c(C(=O)N(N)Cc3ccccc3)cc2c1 [4d, N-Benzyl-5-methoxy-1H-indole-2-carbohydrazide] | 3.23 ± 0.16 | 66.2 ± 3.17 | 5.69 ± 0.31 | 95.2 ± 5.39 |  |  |  | 
204 | NN(Cc1cc(C(F)(F)F)cc(C(F)(F)F)c1)C(=O)c1cc2ccccc2[nH]1 [4e, N-(3,5-Bis(trifluoromethyl)benzyl)-1H-indole-2-carbohydrazide] | 0.57 ± 0.03 | 1.95 ± 0.09 | 3.49 ± 0.19 | 87.2 ± 4.94 | exhibited selectivity toward cancer cells | significant increase | 48.72 | 2
195 | COc1ccc2[nH]c(C(=O)N(N)Cc3cc(C(F)(F)F)cc(C(F)(F)F)c3)cc2c1 [4f, N-(3,5-Bis(trifluoromethyl)benzyl)-5-methoxy-1H-indole-2-carbohydrazide] | 58.1 ± 2.78 | 9.79 ± 0.47 | 8.33 ± 0.45 | 24.4 ± 1.38 |  |  |  | 
209 | NN(Cc1ccc(F)cc1)C(=O)c1cc2ccccc2[nH]1 [4g, N-(4-Fluorobenzyl)-1H-indole-2-carbohydrazide] | 8.31 ± 0.4 | 12.3 ± 0.59 | 17 ± 0.93 | 117 ± 6.65 |  |  |  | 
175 | COc1ccc2[nH]c(C(=O)N(N)Cc3ccc(F)cc3)cc2c1 [4h, N-(4-Fluorobenzyl)-5-methoxy-1H-indole-2-carbohydrazide] | 13.1 ± 0.63 | 207 ± 9.94 | 23.9 ± 1.3 | 64.1 ± 3.63 |  |  |  | 
190 | NN(Cc1ccc(C(F)(F)F)cc1)C(=O)c1cc2ccccc2[nH]1 [4i, N-(4-(Trifluoromethyl)benzyl)-1H-indole-2-carbohydrazide] | 23.9 ± 1.15 | 52.2 ± 2.5 | 11.6 ± 0.63 | 25.3 ± 1.43 |  |  |  | 
220 | COc1ccc2[nH]c(C(=O)N(N)Cc3ccc(C(F)(F)F)cc3)cc2c1 [4j, N-(4-(Trifluoromethyl)benzyl)-5-methoxy-1H-indole-2-carbohydrazide] | 3.27 ± 0.16 | 9.16 ± 0.44 | 6.78 ± 0.37 | 97.9 ± 5.54 |  |  |  | 
202 | N#Cc1ccc(CN(N)C(=O)c2cc3ccccc3[nH]2)cc1 [4k, N-(4-Cyanobenzyl)-1H-indole-2-carbohydrazide] | 9.21 ± 0.44 | 39.1 ± 1.88 | 2.65 ± 0.14 | 30.8 ± 1.74 |  |  |  | 
248 | COc1ccc2[nH]c(C(=O)N(N)Cc3ccc(C#N)cc3)cc2c1 [4l, N-(4-Cyanobenzyl)-5-methoxy-1H-indole-2-carbohydrazide] | 81.4 ± 3.9 | 5.02 ± 0.24 | 26.6 ± 1.45 | 18.5 ± 1.05 |  |  |  | 
238 | NN(Cc1ccc(Br)cc1)C(=O)c1cc2ccccc2[nH]1 [4m, N-(4-Bromobenzyl)-1H-indole-2-carbohydrazide] | 62.9 ± 3.01 | 17.5 ± 0.84 | 12.9 ± 0.7 | 46.1 ± 2.61 |  |  |  | 
228 | COc1ccc2[nH]c(C(=O)N(N)Cc3ccc(Br)cc3)cc2c1 [4n, N-(4-Bromobenzyl)-5-methoxy-1H-indole-2-carbohydrazide] | 141 ± 6.74 | 61 ± 2.92 | 16.7 ± 0.91 | 252 ± 14.3 |  |  |  | 
223 | NN(Cc1ccc([N+](=O)[O-])cc1)C(=O)c1cc2ccccc2[nH]1 [4o, N-(4-Nitrobenzyl)-1H-indole-2-carbohydrazide] | 3.66 ± 0.18 | 2.41 ± 0.12 | 22.3 ± 1.21 | 86 ± 4.87 |  |  |  | 
213 | COc1ccc2[nH]c(C(=O)N(N)Cc3ccc([N+](=O)[O-])cc3)cc2c1 [4p, N-(4-Nitrobenzyl)-5-methoxy-1H-indole-2-carbohydrazide] | 7.01 ± 0.34 | 19.4 ± 0.93 | 3.02 ± 0.16 | 17.4 ± 0.99 |  |  |  | 
166 | COc1ccc2[nH]c(C(=O)N(N)Cc3ccc(C)cc3)cc2c1 [4q, N-(4-Methylbenzyl)-5-methoxy-1H-indole-2-carbohydrazide] | 1.01 ± 0.05 | 6.45 ± 0.31 | 2.4 ± 0.13 | 56.2 ± 3.18 |  |  |  | 3.28 ± 2.3
